Data set [1] has as its system Leishmania major. In words: Antileishmanial activity against Leishmania major promastigotes assessed as parasite growth inhibition incubated for 24 hrs by Alamar blue staining based assay. The class given is functional, organism-based. In general terms: The colour change of resazurin is a common sign of viable cells or microbes.
Data set [2] has as its system Leishmania major. The experiment in a line: Antileishmanial activity against Leishmania major amastigotes assessed as parasite growth inhibition incubated for 72 hrs by resazurin dye based assay. The class given is functional, organism-based.
In data set [3] the test system is Leishmania major. The experiment in a line: Antileishmanial activity against Leishmania major promastigotes assessed as parasite growth inhibition incubated for 48 hrs. Format: functional. More on the design: scale not given: the % may be the effect or the level left.
Data set [4] deals with Leishmania major. In words: Antileishmanial activity against Leishmania major promastigotes assessed as parasite growth inhibition at 100 uM incubated for 48 hrs in presence of folic acid relative to control. Format: functional. More on the design: scale not given: the % may be the effect or the level left.
Data set [5] in a line: Cytotoxicity against African green monkey Vero cells assessed as reduction in cell viability incubated for 72 hrs by crystal violet staining based analysis. Format: toxicity. Conditions: chlorocebus sabaeus.
Data set [6] has as its system Leishmania major. The experiment in a line: Antileishmanial activity against Leishmania major promastigotes assessed as parasite growth inhibition at 20 uM incubated for 48 hrs in presence of folic acid relative to control. The class given is functional. Details: scale not given: the % may be the effect or the level left.
Data set [7] has as its system Leishmania major. The experiment in a line: Antileishmanial activity against Leishmania major promastigotes assessed as parasite growth inhibition at 100 uM incubated for 48 hrs in presence of folinic acid relative to control. The class given is functional. Details: scale not given: the % may be the effect or the level left.
The nature of data set [8]: Selectivity index, ratio of CC50 for cytotoxicity against African green monkey Vero cells to IC50 for antileishmanial activity against Leishmania major amastigotes assessed as parasite growth inhibition. The class given is toxicity, cell-based. Conditions: read-out: Ratio CC50/IC50.
The test system of data set [9] is Leishmania major. The experiment in a line: Antileishmanial activity against Leishmania major promastigotes assessed as parasite growth inhibition at 20 uM incubated for 48 hrs in presence of folinic acid relative to control. Format: functional. Details: scale not given: the % may be the effect or the level left.

Here are results for 21 compounds from ChEMBL document CHEMBL5331075, “New antileishmanial quinoline linked isatin derivatives targeting DHFR-TS and PTR1: Design, synthesis, and molecular modeling studies” (Eur J Med Chem, 2023).

Molecules are shown by their SMILES.

What is called IC50 is the concentration needed to halve the response being measured. For the compound `O=C1/C(=N/Nc2ccnc3cc(Cl)ccc23)c2cc(Br)ccc2N1Cc1ccccc1`, the IC50 was found to be 5950 nM with Leishmania major [1] and 8.29 µM with Leishmania major [2].
Take `CC(C)CN1C(=O)/C(=N/Nc2ccnc3cc(Cl)ccc23)c2cc(Cl)ccc21`: the figures for the IC50 in the data set on Leishmania major [1] and with Leishmania major [2] were 3500 nM and 6.03 µM, respectively.
Regarding `CCN1C(=O)/C(=N\Nc2ccnc3cc(Cl)ccc23)c2ccccc21`, the IC50 came out at 3450 nM with Leishmania major [1] and 5.85 µM in the data set with Leishmania major [2].
As for `O=C1Nc2c(F)cccc2/C1=N/Nc1ccnc2cc(Cl)ccc12`, the 50% inhibitory concentration (IC50) in the data set on Leishmania major [1] turned out to be 1100 nM; in the data set on Leishmania major [2], 1.1 µM.
In the case of `CCCN1C(=O)/C(=N/Nc2ccnc3cc(Cl)ccc23)c2ccccc21`, the IC50 in the data set with Leishmania major [1] came to 3160 nM; with Leishmania major [2], 5.49 µM.
`CN1C(=O)/C(=N/Nc2ccnc3cc(Cl)ccc23)c2cc(Br)ccc21`: the IC50 is 1740 nM in the data set on Leishmania major [1] and 3.46 µM in the data set on Leishmania major [2].
For the compound `CCN1C(=O)/C(=N/Nc2ccnc3cc(Cl)ccc23)c2cc(Cl)ccc21`, the concentration for half-maximal inhibition (IC50) was found to be 2960 nM with Leishmania major [1] and 4.34 µM with Leishmania major [2].
Taken in the same sequence, the figures for `CCCN1C(=O)/C(=N/Nc2ccnc3cc(Cl)ccc23)c2cc(Cl)ccc21` were 2990 nM and 4.99 µM.
Taken in the same sequence, the figures for `O=C1/C(=N/Nc2ccnc3cc(Cl)ccc23)c2ccccc2N1Cc1ccccc1` were 3970 nM and 6.88 µM.
On to `O=C1Nc2ccc(Cl)cc2/C1=N/Nc1ccnc2cc(Cl)ccc12`, for which the concentration for half-maximal inhibition (IC50) in the data set on Leishmania major [1] worked out at 670 nM; with Leishmania major [2], 1.26 µM.
On to `CCN1C(=O)/C(=N/Nc2ccnc3cc(Cl)ccc23)c2cc(Br)ccc21`, for which the half-inhibitory concentration (IC50) was 3210 nM in the data set with Leishmania major [1] and 5.12 µM with Leishmania major [2].
For the compound `CN1C(=O)/C(=N\Nc2ccnc3cc(Cl)ccc23)c2ccccc21`, the IC50 in the data set with Leishmania major [1] turned out to be 1880 nM; in the data set on Leishmania major [2], 3.49 µM.
The term CC50 denotes the concentration at which the toxic effect on the cells reaches its halfway point. On to `O=C1Nc2ccc(F)cc2/C1=N/Nc1ccnc2cc(Cl)ccc12`, for which the Activity in the data set with Leishmania major [3] is 25%; in the data set with Leishmania major [4] it was 90%; in the data set with Leishmania major [6], 80%; in the data set with Leishmania major [7] it was 94%; in the data set on Leishmania major [9], 84%. Also, the 50% inhibitory concentration (IC50) with Leishmania major [1] came to 557 nM; in the data set with Leishmania major [2] it was 0.721 µM. Also, in data set [5], the CC50 at 72 h worked out at 184 µM. Moreover, in data set [8], the selectivity ratio is 255.
Regarding `CN1C(=O)/C(=N/Nc2ccnc3cc(Cl)ccc23)c2cc(Cl)ccc21`, the results for the half-maximal inhibitory concentration (IC50) in the data set on Leishmania major [1] and with Leishmania major [2] were 1870 nM and 3.25 µM, respectively.
The matching figures for `CC(C)CN1C(=O)/C(=N\Nc2ccnc3cc(Cl)ccc23)c2ccccc21`: 2670 nM and 3.99 µM.
For the compound `O=C1Nc2ccccc2/C1=N/Nc1ccnc2cc(Cl)ccc12`, the IC50 with Leishmania major [1] came out at 986 nM; in the data set with Leishmania major [2] it was 2.45 µM.
Take `O=C1/C(=N/Nc2ccnc3cc(Cl)ccc23)c2cc(Cl)ccc2N1Cc1ccccc1`: the IC50 in the data set on Leishmania major [1] worked out at 4000 nM; in the data set with Leishmania major [2], 5.3 µM.
Regarding `O=C1Nc2ccc(OC(F)(F)F)cc2/C1=N/Nc1ccnc2cc(Cl)ccc12`, the Activity came to 28% with Leishmania major [3]; 93% in the data set with Leishmania major [4]; 86% in the data set with Leishmania major [6]; 98% in the data set with Leishmania major [7]; 96% in the data set with Leishmania major [9]. The half-maximal inhibitory concentration (IC50) in the data set on Leishmania major [1] came out at 668 nM; with Leishmania major [2], 0.944 µM. Also, in data set [5], the CC50 at 72 h was 308 µM. The selectivity ratio in data set [8] was 326.
As for `CC(C)CN1C(=O)/C(=N/Nc2ccnc3cc(Cl)ccc23)c2cc(Br)ccc21`, the concentration for half-maximal inhibition (IC50) was determined as 4110 nM with Leishmania major [1] and 6.86 µM in the data set with Leishmania major [2].
As to `O=C1Nc2ccc(Br)cc2/C1=N/Nc1ccnc2cc(Cl)ccc12`, the Activity in the data set with Leishmania major [3] is on record as 21%; with Leishmania major [4], 87%; in the data set on Leishmania major [6], 74%; in the data set with Leishmania major [7] it was 91%; in the data set with Leishmania major [9], 76%. Further, the half-maximal inhibitory concentration (IC50) with Leishmania major [1] was 508 nM; with Leishmania major [2], 0.604 µM. The CC50 at 72 h in data set [5] was found to be 156 µM. Besides, the selectivity ratio in data set [8] is 258.
For `COc1cc(Cc2cnc(N)nc2N)cc(OC)c1OC` [TRIMETHOPRIM], the Activity worked out at 71% with Leishmania major [3] and 99% in the data set with Leishmania major [4].
